Measurements published in patent publication US7364719B2, “Vasoregulating compounds and methods of their use” (The United States of America as represented by the …, priority 2002, dated 2008).
Bridges are numbered along the chain shown (N, C = ends). Where no end group is shown, it is not given here.

Key:
[1] = biological target: T1, AM receptor in Rat2 cells (Rattus norvegicus, UniProt Q63118); test: Measurement of cAMP response in Rat2 cells (radioimmunoassay); assay type: cell-based; details: for intracellular elevation of cAMP: peptides applied 5 minutes, versus PBS control
T1 construct: Rat2 is a fibroblast cell line that contains a well characterized AM receptor; host or cells: Rat2 rat fibroblast cell line
T1 sequence (Q63118 23-464 limits assumed): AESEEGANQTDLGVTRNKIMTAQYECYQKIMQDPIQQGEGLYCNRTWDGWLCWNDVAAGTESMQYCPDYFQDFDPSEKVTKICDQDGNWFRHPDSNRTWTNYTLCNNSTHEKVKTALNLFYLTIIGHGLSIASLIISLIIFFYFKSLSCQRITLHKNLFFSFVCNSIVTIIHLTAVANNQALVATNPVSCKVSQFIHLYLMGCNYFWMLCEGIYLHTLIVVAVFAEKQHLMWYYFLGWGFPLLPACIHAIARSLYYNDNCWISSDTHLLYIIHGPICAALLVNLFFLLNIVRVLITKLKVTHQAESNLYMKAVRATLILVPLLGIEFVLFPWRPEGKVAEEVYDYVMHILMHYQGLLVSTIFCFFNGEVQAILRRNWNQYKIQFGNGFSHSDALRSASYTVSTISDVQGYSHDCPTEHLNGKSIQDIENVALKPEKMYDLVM
T1 sequence (Q9JHJ1 46-182 partner): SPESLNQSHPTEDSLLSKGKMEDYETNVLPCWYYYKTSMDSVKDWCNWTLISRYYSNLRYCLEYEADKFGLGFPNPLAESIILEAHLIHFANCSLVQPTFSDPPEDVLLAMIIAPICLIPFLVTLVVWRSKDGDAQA
Method: Measurement of cAMP response. The rat fibroblast cell line Rat2 was obtained from the American Tissue Culture Collection (Manassas, Va.) and kept in RPMI-1640 medium supplemented with 10% fetal calf serum (Invitrogen). Accumulation of intracellular cAMP was measured as described (Pío et al., J. Biol. Chem. 276:12292-12300, 2001). Cells were seeded in 24-well plates at 2×10^4 cells/well and incubated at 37° C. in 5% CO2 until they reached 80% confluency. Before the assay, cells were incubated for 15 minutes in TIS medium (RPMI-1640 plus 10 μg/ml transferrin, 10 μg/ml insulin, and 50 nM sodium selenite) containing 1% bovine serum albumin, 1 mg/ml bacitracin, and 100 μM isobutylmethylxanthine. Peptides were applied in the same medium for 5 minutes at the indicated concentrations in a volume of 250 μl. The reaction was terminated by adding an equal volume of ice-cold ethanol. cAMP contents were measured using the Biotrac cAMP radioimmunoassay (Amersham).
To determine if AM peptide fragments elicit their hypotensive and hypertensive effects via the AM receptor, their cAMP response in fibroblasts was examined.

[2] = tested on: Male 10-week-old Lewis/ssncr rats; test: Blood pressure measurements in rats after intravenous peptide injection; assay type: in vivo, rat
Method: Blood pressure measurements. Male 10-week-old Lewis/ssncr rats (SAIC, Frederic, Md.) were anesthetized with 3% halothane, intubated, and maintained with 1% halothane in 70% nitrous oxide and 30% oxygen (VMS Anesthesia Machine, Matrx, Medical Inc., Orchard Park, N.Y.) at 82 strokes/minute. Rectal temperature was monitored through the experiment. A PE50 catheter was placed on the right femoral artery and arterial blood pressure was recorded through a P23XL transducer (Grass Instruments, Quincy, Mass.). Peptides were injected into the right femoral vein through another catheter. To confirm that changes in blood pressure were not an artifact of the anesthesia, the experiments were repeated in conscious animals. After catheters were placed under anesthesia, the animals were allowed to recover for 24-48 hours before taking blood pressure measurements. All procedures were performed under a protocol approved by the National Institutes of Health.

anesthetized rats = details: Watanabe et al. 1996; cited from earlier work
blood pressure = details: Kitamura et al. 2001; cited from earlier work
Human recombinant MMP-9 = biological target: T2, Human recombinant MMP-9 (Homo sapiens, UniProt P14780); test: Digestion reactions with MMP-9 (gel); assay type: biochemical; details: low salt collagenase buffer
T2 construct: made in house
T2 sequence (P14780 94-707): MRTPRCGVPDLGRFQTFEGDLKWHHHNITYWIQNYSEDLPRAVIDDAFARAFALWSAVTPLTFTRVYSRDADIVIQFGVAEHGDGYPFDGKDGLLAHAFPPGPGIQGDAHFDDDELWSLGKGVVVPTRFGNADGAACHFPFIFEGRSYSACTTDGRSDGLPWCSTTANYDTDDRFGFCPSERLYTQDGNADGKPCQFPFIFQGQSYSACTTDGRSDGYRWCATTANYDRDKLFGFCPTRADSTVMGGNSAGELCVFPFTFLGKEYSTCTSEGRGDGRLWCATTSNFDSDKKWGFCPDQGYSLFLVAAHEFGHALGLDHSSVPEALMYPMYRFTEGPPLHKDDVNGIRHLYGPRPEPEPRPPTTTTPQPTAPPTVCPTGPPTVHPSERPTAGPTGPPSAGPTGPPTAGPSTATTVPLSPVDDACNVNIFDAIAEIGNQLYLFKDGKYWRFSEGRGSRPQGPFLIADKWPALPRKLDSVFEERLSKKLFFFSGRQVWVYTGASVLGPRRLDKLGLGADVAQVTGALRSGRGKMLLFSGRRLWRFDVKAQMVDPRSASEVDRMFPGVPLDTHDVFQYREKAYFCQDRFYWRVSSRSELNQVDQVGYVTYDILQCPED
Method: (§1) Digestion reactions. Synthetic AM (240 μg/reaction) was exposed to 11.5 μg MMP-2 or MMP-9 in low salt collagenase buffer (50 mM Tris, pH 7.5, 50 mM NaCl, 0.02% Brig) for different periods of time in the presence or absence of 6 mg factor H. These amounts correspond to an approximate molar ratio of 1:250:250 (enzyme:AM:factor H). The reaction was stopped with EDTA. Digestion reactions were run in 16% Tricine gels (Invitrogen, Carlsbad, Calif.) under reducing conditions and stained with Gel Code Blue Stain Reagent (Pierce, Rockford, Ill.).

Human recombinant MMP-2 = biological target: T3, Human recombinant MMP-2 (Homo sapiens, UniProt P08253); test: Digestion reactions with MMP-2 (gel, HPLC); assay type: biochemical; details: low salt collagenase buffer, absence of factor H
T3 construct: made in house
T3 sequence (P08253 110-660): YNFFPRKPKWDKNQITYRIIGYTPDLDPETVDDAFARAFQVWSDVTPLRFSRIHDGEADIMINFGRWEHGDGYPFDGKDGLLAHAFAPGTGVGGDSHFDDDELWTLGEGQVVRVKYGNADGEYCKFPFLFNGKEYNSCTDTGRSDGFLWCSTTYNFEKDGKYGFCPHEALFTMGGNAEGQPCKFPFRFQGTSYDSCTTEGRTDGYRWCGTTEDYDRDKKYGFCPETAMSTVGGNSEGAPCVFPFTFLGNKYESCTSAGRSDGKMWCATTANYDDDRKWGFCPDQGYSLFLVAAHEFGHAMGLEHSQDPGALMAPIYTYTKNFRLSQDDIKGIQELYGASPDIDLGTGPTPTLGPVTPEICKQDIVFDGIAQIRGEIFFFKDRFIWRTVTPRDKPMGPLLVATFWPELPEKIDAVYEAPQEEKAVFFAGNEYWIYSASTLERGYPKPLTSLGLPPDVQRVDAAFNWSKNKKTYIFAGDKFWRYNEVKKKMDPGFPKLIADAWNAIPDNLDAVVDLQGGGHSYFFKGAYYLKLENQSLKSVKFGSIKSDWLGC
Method: as §1
High performance liquid chromatography (HPLC). Digestion reactions were also loaded into an analytical reverse phase R2H 5×100 mm HPLC column (Poros, Applied Biosystems, Foster City, Calif.) in a 10-60% acetonitrile gradient over 10 minutes and the protein peaks eluted from the column were detected with a wavelength of 230 nm.

hypertensive SHR rats = test: Arterial blood pressure in hypertensive SHR rats after IP MMP-2 inhibitor; assay type: in vivo, rat; details: 5 mg IP
[3] = anesthetized rats, injection into femoral vein

AM(11-22): peptide consisting of amino acids 11-22 of adrenomedullin (LRSFGCRFGTCT; PEPTIDE (1)..(12) Active peptide AM(11-22), corresponding to positions 11-22 of adrenomedullin (SEQ ID NO 3) and positions 105-116 of preproadrenomedullin (SEQ ID NO 2).; listed as Homo sapiens)
effect on cAMP response elicited by intact AM (1-52) ([1]; different (increasing) concentrations of peptide added with AM): did not affect the response | vasopressor effect over basal levels ([2]; anesthetized rats, injection into femoral vein, n=5): 71±24 mm Hg | duration of activity ([2]; vasoconstrictor activity in rats): on the order of hours

AM-(1-21)-NH2: synthetic N-terminal AM fragment (Watanabe et al.) (YRQSMNNFQGLRSFGCRFGTC-NH2; ends and bridges not checked; UniProt P35318 95-115, looked up, fragment)
vasoactivity (vasodepressor or vasopressor) (anesthetized rats): vasopressor activity

AM(11-28): AM fragment generated by MMP-2 digestion; has the loop but not the carboxy end; synthesized (LRSFGCRFGTCTVQKLAH; disulfide 6-11 (inferred); UniProt P35318 105-122, looked up, fragment)
effect on blood pressure [2, 3]: do not have any discernible effect

AM(11-26): AM fragment purified from bovine adrenal medulla (Kitamura et al.) (LRSFGCRFGTCTVQKL; ends and bridges not checked; cysteine pairing not given here; UniProt P35318 105-120, looked up, fragment)
duration of elevation in blood pressure (blood pressure): about 70 seconds | vasopressor activity (blood pressure): induced vasopressor activity

adrenomedullin [AM]
intracellular elevation of cAMP [1]: significant elevation of cAMP | degradation by MMP-9 (Human recombinant MMP-9): resistance | reduction of blood pressure (hypotension) ([2]; anesthetized rats, injection into femoral vein, n=5, untreated systolic 125±10 mm Hg): 55±5 mm Hg | degradation by MMP-2 (Human recombinant MMP-2): rapidly cleaves

AM(23-52): AM fragment generated by MMP-2 digestion; retains only the terminal amide; synthesized (VQKLAHQIYQFTDKDKDNVAPRSKISPQGY-NH2; UniProt P35318 117-146, looked up, fragment)
effect on blood pressure [2, 3]: do not have any discernible effect

CNC(=O)[C@H](Cc1ccccc1)NC(=O)[C@H](CC(C)C)[C@H](CSc1cccs1)C(=O)NO [BB-94, Batimastat]
drop in blood pressure (hypertensive SHR rats): about 80 mm of Hg | time after injection at which blood pressure dropped (hypertensive SHR rats): 20 min | time blood pressure remained at the reduced level (hypertensive SHR rats): at least 2.5 hours

AM-(1-31)-NH2: synthetic N-terminal AM fragment (Watanabe et al.) (YRQSMNNFQGLRSFGCRFGTCTVQKLAHQIY-NH2; ends and bridges not checked; UniProt P35318 95-125, looked up, fragment)
vasoactivity (vasodepressor or vasopressor) (anesthetized rats): vasopressor activity

AM(29-52): AM fragment generated by MMP-2 digestion; retains only the terminal amide; synthesized (QIYQFTDKDKDNVAPRSKISPQGY-NH2; UniProt P35318 123-146, looked up, fragment)
effect on blood pressure [2, 3]: do not have any discernible effect

AM(8-52): AM fragment generated by MMP-2 digestion; maintains intramolecular ring structure and α-amide; synthesized (FQGLRSFGCRFGTCTVQKLAHQIYQFTDKDKDNVAPRSKISPQGY-NH2; disulfide 9-14 (inferred); UniProt P35318 102-146, looked up, fragment)
intracellular elevation of cAMP [1]: equal to the one induced by the intact AM molecule | effect on blood pressure [2, 3]: induced hypotension

AM-(1-25)-OH: synthetic N-terminal AM fragment (Watanabe et al.) (YRQSMNNFQGLRSFGCRFGTCTVQK-OH; ends and bridges not checked; UniProt P35318 95-119, looked up, fragment)
vasoactivity (vasodepressor or vasopressor) (anesthetized rats): vasopressor activity

AM(11-52): AM fragment generated by MMP-2 digestion; maintains intramolecular ring structure and α-amide; synthesized (LRSFGCRFGTCTVQKLAHQIYQFTDKDKDNVAPRSKISPQGY-NH2; disulfide 6-11 (inferred); UniProt P35318 105-146, looked up, fragment)
intracellular elevation of cAMP [1]: equal to the one induced by the intact AM molecule | effect on blood pressure [2, 3]: induced hypotension

acetyl-AM-(16-36)-NH2: synthetic N-terminal AM fragment (Watanabe et al.) (Ac-CRFGTCTVQKLAHQIYQFTDK-NH2; ends and bridges not checked; UniProt P35318 110-130, looked up, fragment)
vasoactivity (vasodepressor or vasopressor) (anesthetized rats): vasopressor activity

AM-(1-25)-NH2: synthetic N-terminal AM fragment (Watanabe et al.) (YRQSMNNFQGLRSFGCRFGTCTVQK-NH2; ends and bridges not checked; UniProt P35318 95-119, looked up, fragment)
vasoactivity (vasodepressor or vasopressor) (anesthetized rats): vasodepressor activity

acetyl-AM-(16-21)-NH2: synthetic N-terminal AM fragment (Watanabe et al.) (Ac-CRFGTC-NH2; ends and bridges not checked; UniProt P35318 110-115, looked up, fragment)
vasoactivity (vasodepressor or vasopressor) (anesthetized rats): vasopressor activity
